Measurements taken from patent publication US12527773B2, “Flavi-block: a pan-flavivirus inhibitor” (Baden-Württemberg Stiftung GmbH, priority 2020, dated 2026).
Like-named read-outs stand apart in the source and are kept apart here.

Assays:
HCV-JC1-Luc = experiment: Validation of antiviral effects of 20 hits: release of infectious HCV-JC1-Luc particles from Huh7.5 cells; assay type: cell-based, Hepatitis C virus; conditions: 10 μM, among the best 20 candidates
Experimental: Huh7.5 cells were electroporated with HCV-JC1-Luc (reporter virus expressing luciferase via IRES) RNA and treated 24 h later with the best 20 candidates (10 μM). After another 24 h the supernatants were harvested. To quantify infectious particles, untreated Huh7.5 cells were inoculated with the supernatants and 36 h later the luciferase activity was measured. The viability of the same cells was determined 24 h after treatment with inhibitor by MTT assay (tetrazolium salt which is reduced in metabolically active cells resulting in a color change). For both parameters, 100% corresponds to the release or viability of the untreated or DMSO treated control. uninf.=not infected; untr.=not treated. Mean values and SD were derived from n =3 independent infections.
Huh7.5 hepatocellular carcinoma cells were electroporated with HCV-JC1-Luc (reporter virus expressing luciferase via IRES) RNA and treated 24 h later with the best 20 candidates (10 μM) identified in Example 1. After another 24 h, the supernatants were harvested. To quantify infectious particles, untreated Huh7.5 cells were inoculated with the supernatants and luciferase activity was measured 36 h later (FIG. 2).

[1] = Cytotoxicity in Huh7.5 cells (Cell Titer Glo, ATP); assay type: cell-based; conditions: human, Huh7.5 cells; Huh7.5, 24 h
Experimental: Cell viability was measured via the presence of ATP using the Promega Cell Titer Glo kit according to the manufacturer's instructions. Luminescence was detected using the Cytation3 by Biotek. […] (B) The same set of data as shown in FIG. 4A was plotted in a line graph. […] (D) As for FIG. 4A, Huh7.5 cells (1.0×10^4 cells/well) were seeded and incubated with C10 at the indicated concentrations for the indicated time points before measurement of viability using the Promega Cell Titer Glo kit.
Cell viability was measured by the presence of ATP using the Promega Cell Titer Glo Kit according to the manufacturer's instructions. Luminescence was detected using a Biotek Cytation3.
In the analysis of the data, all values were normalized against the DMSO control and presented in terms of percentage viability. The result is shown in the bar chart of FIG. 4A and the line chart of FIG. 4B; n≥6 with SEM.
For this purpose, Huh7.5 cells were seeded, treated and analyzed as described above. The CC50 values for C10, D1, D2, and D3 were calculated using GraphPad Prism6 software with a non-linear regression curve fitting algorithm, as shown in FIG. 4B. It should be noted that the tested compounds precipitate at concentrations above 160 μM in aqueous solutions. For this reason, higher concentrations cannot be tested.

DEN1/2 = experiment: IC50 in established virological assays (Table 1), DEN1/2; assay type: cell-based; conditions: Dengue virus
Excerpt: In summary, a set of C10 derivatives (FIG. 12) was designed, synthesized and tested against HCV (which is considered as an established system to monitor drug effects against Flaviviridae) as well as DENV for comprehensive structure-activity relationship (SAR) analysis and target validation.

FluAV = experiment: IC50 in established virological assays (Table 1), FluAV; assay type: cell-based; conditions: Influenza A virus
DENV1 = experiment: Plaque assay of released virus, DENV1-infected Vero cells; assay type: cell-based; conditions: Dengue virus
Experimental: Vero cells were infected with DENV1-4 at an MOI of 1 for 2 h (post infection, p.i., (A)), after which virus was removed, and fresh maintenance medium containing 2% FCS together with the indicated concentration of C10 added. For co-treat condition (c.t., (B)), Vero cells were infected with DENV1-4 at an MOI of 1 in the presence of C10 for 2 h, followed by removal of the virus/C10 inoculums, and addition of fresh 2% fetal calf serum maintenance medium. […] Results represent the mean ±SD for duplicate wells from a single assay, representative of 2 independent experiments (cf. Tables 2A and 2B, infra, for pooled data).
Vero and BHK-21 cells were maintained in DMEM media supplemented with 10% heat-inactivated FBS at 37° C. in a humidified incubator supplemented with 5% CO2; A549 cells were maintained in F-12K medium supplemented with 10% heat-inactivated Fetal Bovine Serum (FBS), 2 mM L-glutamine, 50 U/I penicillin, 0.05 mg/l streptomycin. […] Viral titer was subsequently determined by plaque assay (see below).
Vero cells were seeded into 24-well plates at a density of 2×10^5 cells/well and grown overnight in culture medium at 37° C. with 5% CO2 prior to infection with RSV, KUNV, ZIKV as indicated. […] The stain was removed by rinsing the cells with tap water, and the viral plaques were counted visually. […]

[2] = tested on: VP1 polyomavirus, LP1 HPV16, p24 HIV, BSA, GFP; experiment: Specificity in the cross-linking assay: other capsid and non-related proteins; assay type: biochemical
Experimental: DSS was included as a positive control.
To study the specificity of C10, capsid proteins of other viruses (VP1 polyomavirus, LP1 HPV16, and p24 HIV) as well as non-related proteins (BSA, GFP), were incubated in the so-called cross-linking assay, with DSS or C10.

[3] = Metabolic stability in mouse liver microsomes; conditions: for % Remain. Mean of 2: with NADPH; for % Remain. without cofactor, Mean of 2: without NADPH cofactor
Experimental: Microsomal incubations were carried out in 96-well plates in 5 aliquots of […] each (one for each time point). […] Control incubations were performed replacing the NADPH-cofactor system with PBS. […] Incubations were performed in duplicates. Five time points over 40 minutes had been analyzed. The reactions were stopped by adding 12 volumes of 90% acetonitrile-water to incubation aliquots, followed by protein sedimentation by centrifuging at 5500 rpm for 3 minutes. […]. Supernatants were analyzed using the HPLC system coupled with tandem mass spectrometer.
The elimination constant (kel), half-life (t½) and intrinsic clearance (Clint) were determined in plot of In(AUC) versus time, using linear regression analysis (In order to indicate the quality of the linear regression analysis, the R (correlation coefficient) values are provided. In some cases, the last time point is excluded from the calculations to ensure acceptable logarithmic linearity of decay): […]

CCN1/C(=C\C=C\c2sc3cc(NC(C)=O)ccc3[n+]2CC)Sc2cc(NC(C)=O)ccc21.[I-] [C10, 6-acetamido-2-((1E,3E)-3-(6-acetamido-3-ethylbenzo[d]thiazol-2(3H)-ylidene)prop-1-en-1-yl)-3-ethylbenzo[d]thiazol-3-ium iodide]
antiviral activity (release of infectious particles) (HCV-JC1-Luc): highest antiviral activity
CC50 at 24 h [1]: 106000 nM
IC50 (DEN1/2): 110 to 180 nM
IC50 (FluAV): ~5000 nM
EC50 (DENV1; read-out: EC50 from plaque assays, DENV1, c.t. (co-treat)): 40 nM
EC50 (DENV1; read-out: EC50 from plaque assays, DENV1, p.i. (post infection)): 110 nM
crosslinking effect on other capsid and non-related proteins [2]: either no effect on these proteins or it starts at concentrations around 200 times higher than the IC50
half-life at 2 mM ([3]; male, Balb/c, mouse, microsomes, pH 7.4): 5.79 h
CIint ([3]; mouse liver microsomes): 5 µL/min/mg
Kel ([3]; mouse liver microsomes): 0.002 min⁻¹
stability in mouse hepatic microsomal test system ([3]; mouse, microsomes): good stability
% Remain. Mean of 2 ([3]; 0.42 mg protein per ml, 0 min): 100%
% Remain. Mean of 2 ([3]; 10 min): 100%
% Remain. Mean of 2 ([3]; 20 min): 96%
% Remain. Mean of 2 ([3]; 30 min): 95%
% Remain. Mean of 2 ([3]; 40 min): 88%
% Remain. without cofactor, Mean of 2 ([3]; 0 min): 100%
% Remain. without cofactor, Mean of 2 ([3]; 40 min): 86%
